From patent US9796674B2, “Benzyl urea derivatives for activating TGF-beta signaling” (THE BOARD OF TRUSTEES OF THE LELAND STANFORD JUNIOR …, priority 2013, dated 2017)
Read-outs that look alike come from different tables or passages of the source.

Experiments:
[1] = system: FvB wildtype mice; type: in vivo
Description: Excitotoxic injury model: Mice are injured with kainic acid and treated with different test compounds at two concentrations each to determine if they can reduce neurodegeneration and/or microglial activation. Wildtype mice on the FVB/N genetic background (8-weeks-old) are typically injured with kainic acid (Tocris, Ellisville, Mo.) dissolved in PBS and injected subcutaneously (s.q., 20 mg/kg). Seizure activity is scored from 0 to 5, with 0 corresponding to no behavioral changes and 5 corresponding to constant rearing and falling. Only kainate-injected mice reaching at least stage 3 are used for the studies. On day 5 following injury, mice are anesthetized, transcardially perfused with 0.9% saline, and brains harvested and dissected. One hemi-brain may be fixed for 24 hours in 4% paraformaldehyde and cryoprotected in 30% sucrose. Serial coronal sections (40 μm) can be cut with a freezing microtome (Leica, Allendale, N.J.) and stored in cryoprotective medium. One set of sections, representing different levels of the hippocampus, is used for the various stains. The other hemi-brain is dissected into hippocampus, cortex, thalamus, brain stem, and cerebellum. In this manner, the ability of test compounds to reduce neurodegeneration in kainate-injected mice can be assayed.
SRI-011381 is neuroprotective in a model of acute neurodegeneration: To study the potential neuroprotective effect of SRI-011381 in vivo, FvB wildtype mice were pre-treated with compound or vehicle for 3 days before excitotoxic injury was induced with kainic acid (10 mg/kg, SQ). Mice continued to receive daily injections of compound until they were sacrificed at day 5 after kainic acid injury. Brains were removed, fixed with paraformaldehyde, sectioned into […] sections using a cryomicrotome and stained with cresyl violet, or immunohistochemical methods. Sections for analysis of synaptophysin, MAP2, and NeuN were subjected to blinded confocal quantitative analysis of neurodegeneration.
To study the potential neuroprotective effect of SRI-011381, FvB wild-type mice were pre-treated with compound or vehicle for 3 days before excitotoxic injury was induced with kainic acid (10 mg/kg). Mice continued to receive daily injections of compound until they were sacrificed at day 5 after kainic acid injury. Kainic acid treatment alone caused a roughly 50% lethality in this experiment (lethality greatly varies in this model and is very difficult to control, but survivors from experiments with greater than 25% lethality typically show significant neurodegeneration in the hippocampus).
Brains were removed, fixed with paraformaldehyde, sectioned into […] sections using a cryomicrotome and stained with cresyl violet, or immunohistochemical methods. Sections were analyzed for synaptophysin, MAP2, and NeuN by confocal quantitative analysis of neurodegeneration. All observers were completely blinded to the treatment conditions of the mice.

[2] = system: APP751Lon,Swe transgenic mice; assay: Efficacy in APP751Lon,Swe transgenic mouse model; type: in vivo; conditions: for Y-maze working memory (spontaneous alternations): po 3 times per week
Text: Transgenic mouse models over-producing human APP-containing mutations found in families with autosomal dominant AD reproduce important aspects of AD, including amyloid plaques, neurodegeneration, and cognitive deficits. Transgenic mice which overexpress human APP751^V717I, K670M/N671L (aka London and Swedish mutations) in neurons under control of a Thy1.2 promoter, specifically Line 41 generated according to Rockenstein et al., (2001) J. Neurosci. Res. 66: 573-582, incorporated herein by reference in its entirety, develop amyloid pathology, neurodegeneration, and cognitive deficits (Rockenstein et al. 2001). These mice (short APP751^Lon,Swe) have been studied by multiple laboratories (Pickford et al. (2008) J. Clin. Invest. doi:10.1172/JCI33585; Knowles et al., (2009) J. Neuroscience 29: 10627-10637) and have been used as a model for drug development.
Compound SRI-011381 was dissolved in a vehicle containing 15% solutol and 85% water. The formulated compound was administered orally to APP751^Lon,Swe transgenic mice or littermate non-transgenic controls (male, 6.5-7.5 months of age) at 0 (vehicle only), 10, 30 mg/kg of body weight 3 times per week for 10 weeks (n=7-11 mice per group). Behavioral studies started at this point. Oral gavage of the compound continued throughout the course of the studies until the mice were sacrificed 17 weeks after treatment had been initiated (thus mice were treated for roughly 4 months total before they were sacrificed). Plasma samples were collected for future proteomic assays. One hemibrain was fixed in 4% PFA for 48 h and kept in 2% PFA at 4° C. for neuropathologcial analysis. The other hemibrain was snap frozen. Both the serum and frozen brain samples were placed into −80° C. freezer for long-term storage.
To determine the effects of SRI-011381 (381) treatment on AD-like pathology brains from APP751^Lon,Swe transgenic and non-transgenic littermate control mice treated with vehicle, 10 mg/kg, or 30 mg/kg of compound were sectioned into 40 μm free-floating sections with a vibratome. Brain sections were stained with antibodies against Aβ, phosphorylated tau (PHF1), calbindin, microtubule associated protein2 (MAP2), synaptophysin (SY38), NeuN, and Iba1. In addition, hippocampus and neocortex from one hemibrain from APP751^Lon,Swe mice were homogenized with guanidine, and levels of Aβ1-42 and Aƒβ1-x were measured by ELISA.

[3] = one third of maximum tolerated dose

For `O=C(NC1CCCCC1)N(Cc1ccccc1)CC1CCNCC1` [SRI-011381, 1-Benzyl-3-cyclohexyl-1-(piperidin-4-ylmethyl)urea], the “lethality after kainic acid” value ([1]; 10 mg/kg daily) was “significant reduction in lethality”, the calbindin loss reduced ([1]; kainic acid 10 mg/kg, day 5) was 30% and the “neuronal damage reversed or prevented, all neuronal markers” value ([1]; kainic acid 10 mg/kg, day 5) was “at least 30%”. For the same compound, the “reduction of CD68 expression” value ([1]; kainic acid 10 mg/kg, day 5) was “more than 20%”, the “lethality after kainic acid” value ([1]; mouse, in vivo, 60 mg/kg) was “increase in lethality” and the “pathology reduced: Cresyl violet” value [1, 3] was 54.0%. The “pathology reduced: D68” value [1, 3] was 22.5%, the “pathology reduced: MAP-2” value [1, 3] was 37.4% and the “pathology reduced: NeuN” value [1, 3] was 36.9%. For the same compound, the “pathology reduced: Synaptophysin” value [1, 3] was 67.5%, the “neurodegeneration (percentage of rescue)” value ([1]; systemic administration) was “reduces neurodegeneration by 6 markers” and the “fear conditioning: context memory” value ([2]; 10 mg/kg) was “significantly improved”. The “rescue of working memory deficit (Y-maze)” value ([2]; 10 mg/kg po 3 times per week, 10 weeks) was greater than 50%, the “fear conditioning: cued memory to the tone” value ([2]; 10 or 30 mg/kg) was “no significant differences” and the “fear conditioning: learning of the tone response (freezing, tone 4)” value ([2]; 10 or 30 mg/kg) was “completely absent”. The “Aβ immunoreactivity in hippocampus and cortex” value ([2]; 10 or 30 mg/kg, about 4 months) was “trend was seen towards lower levels”, the “Aβ levels by ELISA in hippocampus and cortex” value ([2]; 10 or 30 mg/kg, about 4 months) was “non-significant trends towards lower Aβ levels” and the “increase in expression of PHF1” value ([2]; 10 or 30 mg/kg, about 4 months) was “almost completely absent”. The “level of Iba1” value ([2]; 10 or 30 mg/kg, about 4 months) was “did not significantly change”, the “levels of calbindin, synaptophysin, MAP-2 and NeuN” value ([2]; 10 or 30 mg/kg, about 4 months) was “significantly higher levels of these neuronal markers” and the “fear conditioning: cued memory to the tone” value ([2]; 10 or 30 mg/kg, listed as 381) was “No freezing difference”. For the same compound, the “fear conditioning: learning of the tone response (freezing, tone 4)” value ([2]; 10 or 30 mg/kg, listed as 381) was “significant increase in freezing”, the “rescue of contextual memory deficit” value ([2]; oral) was “greater than 50%” and the “Y-maze working memory (spontaneous alternations)” value ([2]; 10 weeks) was “not significantly impaired compared with littermate non-transgenic controls”. The “Y-maze working memory (spontaneous alternations)” value ([2]; 10 weeks, listed as 381) was “improved” and the neurodegeneration ([2]; two dose levels, 4-month-period of treatment) was “marked amelioration of neurodegeneration”.
